Source: patent publication US6706291B1, “Poultry producibility improver and poultry producibility improvement method” (Taiyo Kagaku Co., Ltd., priority 2001, dated 2004)

How the values were obtained:
[1] = tested on: eggs of Isabrown laying hens; assay: Test Example 2: DHA, EPA, vitamin E content and Haugh unit of eggs during storage; assay type: in vivo, chicken; conditions: for EPA Content / Haugh Unit / Vitamin E Content / DHA Content: eggs after 4 months; for DHA Content: feed with fish oil and vitamin E
Protocol: Isabrown laying hens were bred in poultry houses of the windless vertical 2-shelf cage type. Seventeen poultry houses a to q (10,000 hens/poultry house) were set, and a field test concerning suppression of a decrease in highly unsaturated fatty acid content during storage of eggs laid by laying hens was carried out. […] In addition, the laying hens were fed with a feed prepared by adding 2 kg of a fish oil and 10 g of vitamin E to 100 kg of a cormnercially available feed for laying hens. In addition, the laying hens were allowed to take water ad libitum.
After 4 months from initiation of the test, 20 eggs each were collected from each poultry house. DHA content and EPA content of the eggs, as indices for highly unsaturated fatty acid, were determined on the day of collection for 10 of the eggs, and after 2 weeks of storage at 4° C. for the remaining 10 eggs, respectively. Vitamin E content and Haugh unit were also determined. A change in the DHA content, a change in the EPA content, a change in the vitamin E content, and a change in the Haugh unit are shown in Tables 12, 13, 14 and 15, respectively.

[2] = tested on: eggs of White Leghorn laying hens; assay: Test Example 1: Haugh unit and vitamin E content of eggs during storage; assay type: in vivo, chicken; conditions: for Haugh Unit / Vitamin E Content: eggs collected after 4 months
Protocol: Here, the term “Haugh unit” mentioned above refers to an index showing an extent of deterioration of thick albumen and is defined as the numeral calculated using the equation: […]
wherein H is a height (mm) of thick albumen; and W is an egg weight (g).
Furthermore, after 4 months from initiation of the test, 20 eggs each were collected from each poultry house. Haugh unit and vitamin E content were determined on the day of collection for 10 of the eggs, and after 2 weeks of storage at 4° C. for the remaining 10 eggs, respectively.

[3] = tested on: White Leghorn laying hens; assay: Test Example 1: field test on producibility of laying hens (liveability, egg production indices); assay type: in vivo, chicken; conditions: for Liveability: additive in feed entire breeding period; for Number of Eggs Produced / Weight of Produced Eggs: 30,000 hens/poultry house
Protocol: White Leghorn laying hens at 121 days of age were housed in poultry houses of the windless vertical 6-shelf cage type and bred therein for 1 year. Eighteen poultry houses A to R (30,000 hens/poultry house) were set, and a field test concerning improvement in producibility by laying hens was carried out.
The laying hens were fed with a commercially available formula feed for laying hens, and allowed to take water ad libitum.
As indices for the producibility, there were obtained a liveability, a rate of laying, each egg weight and a weight of eggs produced per day, each item being at 4 months after initiation of the test, and a total number of eggs produced and a total egg weight during the 4-month period from initiation of the test. The same items were also determined at 8 and 12 months after initiation of the test. […] In the following tables, the indications “4M, 8M, 12M” stand for 4 months, 8 months, and 12 months after initiation of the test, respectively.

[4] = tested on: White Cornish edible chickens; assay: Test Example 3: K value, TBA value, POV value of chicken meat after storage; assay type: in vivo; conditions: for K Value of Chicken Meat after 10 Days of Storage: storage at 4° C.
From the text: In the present invention, the expression “keeping freshness of chicken meat” refers to suppression of an increase during storage in a numerical value, such as K value (ratio of inosine and hypoxanthine content to the sum of ATP, ADP, AMP, IMP, inosine and hypoxanthine contents in chicken meat as expressed in percentage), VBN value (a total amount of volatile basic substances, such as ammonia and trimethylamine, in chicken meat), TMA value (trimethylamine content in chicken meat) and polyamine content (total amount of decarboxylated products of free amino acids, such as putrescine, cadaverine, agmatine, histamine, tyramine, tryptamine and spermidine, in chicken meat), metmyoglobin formation ratio (ratio of myoglobin oxidized to metmyoglobin in muscular tissue of chicken meat), TBA value (ratio of fatty acids oxidized to fatty acids in chicken meat), POV value (peroxide value: ratio of oil or fat oxidized in chicken meat), and bacterial cell count (number of bacterial cells in chicken meat). In the present invention, it is preferable that at least one selected from the group consisting of K value, TBA value and POV value is used as an index for keeping freshness of chicken meat. Because the K value is most generally used as an index for freshness, it is more preferable to use the K value as an index for keeping freshness of chicken meat. White Cornish edible chickens were bred for 7 weeks from newly-hatched chickens. The hatched chickens were divided into 17 groups, the groups AA to QQ of 200 chickens per group. […] The edible chickens were fed with a commercially available formula feed for edible chickens, and allowed to take feed and water ad libitum. […] The liveability is shown in Table 17 and the weekly body weight gain in Table 18, respectively. […] Furthermore, changes in the TBA value and in the POV value of each of the breast meat, the leg meat and the chicken fat after storage were determined in the same manner. The cholesterol content is shown in Table 19, the change in the K value after storage in Table 20, the change in the TBA value after storage in Table 21, and the change in the POV value after storage in Table 22, respectively.

[5] = tested on: White Cornish edible chickens; assay: Test Example 3: cholesterol content of breast meat, leg meat and chicken fat; assay type: in vivo
From the text: (§1) White Cornish edible chickens were bred for 7 weeks from newly-hatched chickens. The hatched chickens were divided into 17 groups, the groups AA to QQ of 200 chickens per group. […] The edible chickens were fed with a commercially available formula feed for edible chickens, and allowed to take feed and water ad libitum. […] The liveability is shown in Table 17 and the weekly body weight gain in Table 18, respectively. […] Furthermore, changes in the TBA value and in the POV value of each of the breast meat, the leg meat and the chicken fat after storage were determined in the same manner. The cholesterol content is shown in Table 19, the change in the K value after storage in Table 20, the change in the TBA value after storage in Table 21, and the change in the POV value after storage in Table 22, respectively.

[6] = tested on: White Cornish edible chickens; assay: Test Example 3: liveability and weekly body weight gain of edible chickens; assay type: in vivo, chicken
From the text: as §1

[7] = After 2 Weeks of Storage at 4° C.
[8] = Immediately After Egg Production

(−)-epigallocatechin gallate
Effect on decrease in DHA, EPA, vitamin E content and Haugh unit during egg storage, in words ([1]; 2 weeks of storage at 4° C.): no effect was found | EPA Content [1, 7]: 84.0 mg based on 100 g of egg yolk solution | Haugh Unit [1, 7]: 80.9 | Vitamin E Content [1, 7]: 1.7 mg based on 100 g of egg yolk solution | EPA Content [1, 8]: 103.8 mg based on 100 g of egg yolk solution | Haugh Unit [1, 8]: 96.5 | Vitamin E Content [1, 8]: 3.0 mg based on 100 g of egg yolk solution | DHA Content [1, 7]: 1,344.0 mg based on 100 g of egg yolk solution | DHA Content [1, 8]: 1,493.1 mg based on 100 g of egg yolk solution | Effect on decrease in Haugh unit and vitamin E content during egg storage, in words ([2]; 2 weeks of storage at 4° C.): no effect was found | Haugh Unit [2, 7]: 79.9 | Vitamin E Content [2, 7]: 2.0 mg based on 100 g of egg yolk solution | Haugh Unit [2, 8]: 98.0 | Vitamin E Content [2, 8]: 3.1 mg based on 100 g of egg yolk solution | Each Egg Weight ([3]; 4M after initiation of test): 58.6 g | Rate of Egg Production ([3]; 4M after initiation of test): 92.3% | Weight of Eggs Produced Per Day ([3]; 4M after initiation of test): 53.97 g | Liveability ([3]; 4M after initiation of test): 98.90% | Number of Eggs Produced ([3]; 4M): 295,589 ct | Weight of Produced Eggs ([3]; 4M): 17,321.5 kg | Each Egg Weight ([3]; 8M after initiation of test): 61.7 g | Rate of Egg Production ([3]; 8M after initiation of test): 82.9% | Weight of Eggs Produced Per Day ([3]; 8M after initiation of test): 51.05 g | Liveability ([3]; 8M after initiation of test): 97.81% | Number of Eggs Produced ([3]; 8M): 714,941 ct | Weight of Produced Eggs ([3]; 8M): 44,111.9 kg | Each Egg Weight ([3]; 12M after initiation of test): 63.1 g | Rate of Egg Production ([3]; 12M after initiation of test): 72.9% | Weight of Eggs Produced Per Day ([3]; 12M after initiation of test): 47.68 g | Liveability ([3]; 12M after initiation of test): 95.02% | Number of Eggs Produced ([3]; 12M): 1,054,111 ct | Weight of Produced Eggs ([3]; 12M): 66,514.4 kg | Effect on producibility indices (liveability, rate of egg production, egg weight, eggs produced), in words ([3]; compared with poultry house Q given only an ordinary feed / houses H to R): an effect of addition of these additives was not found | Change in POV Value after 10 Days Storage ([4]; Breast Meat): 1.52 | Change in TBA Value after 10 Days Storage ([4]; Breast Meat): 0.44 | K Value of Chicken Meat after 10 Days of Storage ([4]; Breast Meat): 55.3 | Change in POV Value after 10 Days Storage ([4]; Chicken Fat): 1.80 | Change in TBA Value after 10 Days Storage ([4]; Chicken Fat): 0.42 | Change in POV Value after 10 Days Storage ([4]; Leg Meat): 1.53 | Change in TBA Value after 10 Days Storage ([4]; Leg Meat): 0.40 | K Value of Chicken Meat after 10 Days of Storage ([4]; Leg Meat): 55.4 | Cholesterol Content ([5]; Breast Meat): 72.0 mg based on 100 g of chicken meat or chicken fat | Cholesterol Content ([5]; Chicken Fat): 227.6 mg based on 100 g of chicken meat or chicken fat | Cholesterol Content ([5]; Leg Meat): 86.0 mg based on 100 g of chicken meat or chicken fat | Weekly Body Weight Gain ([6]; after breeding for 7 weeks): 462.5 g | Liveability ([6]; after breeding for 7 weeks, 200 chickens per group): 96.33% | Effect on liveability, weekly body weight gain, cholesterol content, K, TBA and POV values, in words ([6]; all indices of Test Example 3): no effect was found
